Results: patent publication US5276049A, “Cyclic urea derivatives, pharmaceutical compositions containing these compounds and methods of using the same” (Dr. Karl Thomae GmbH, priority 1991, dated 1994)
Counter-ions that a name gives are not always drawn.

Experiments:
[1] = test system: thrombocyte aggregation in platelet-rich plasma; experiment: Antithrombotic effect: collagen-induced thrombocyte aggregation in platelet-rich plasma (Born and Cross); format: cell-based; details: human platelet-rich plasma, 10 minutes preincubation at 37° C., read-out: Inhibition of platelet aggregation EC50
Procedure: 2. Antithrombotic Effect Method: The thrombocyte aggregation was measured in platelet-rich plasma from healthy test subjects using the Born and Cross method (J. Physiol. 170: 397 (1964)). In order to inhibit coaggulation the blood was mixed with 3.14% sodium citrate in a ratio by volume of 1:10. Collagen-induced aggregation: The decrease in the optical density of the platelet suspension was measured photometrically and recorded after the addition of the aggregation-initiating substance. The speed of aggregation was concluded from the angle of inclination of the density curve. The point on the curve at which there was maximum transmittance was used to calculate the optical density. The quantity of collagen used was as little as possible but sufficient to give an irreversible reaction curve. Standard commercial collagen produced by Hormonchemie of Munich was used. Before the addition of collagen the plasma was incubated with the substance for 10 minutes at 37° C. From the measurements obtained, an EC50 was determined graphically, relating to a 50% change in the optical density in terms of inhibiting aggregation.

[2] = test system: Human Thrombocytes; experiment: Fibrinogen Binding to Human Thrombocytes (I125-fibrinogen, gel-filtered platelets); details: inhibition of I125-fibrinogen binding to gel-filtered human platelets, ADP, 20 minutes, ambient temperature; read-out: Fibrinogen Binding test IC50
Procedure: 1. Fibrinogen Binding to Human Thrombocytes Blood obtained by puncture of an antecubital vein was anticoagulated with trisodium citrate (final concentration: 13 mM) and centrifuged for 10 minutes at 170 *g. The supernatant platelet-rich plasma was placed on a Sepharose 2B column (Pharmacia) and eluted with a solution of 90 mM common salt, 14 mM trisodium citrate, 5 mM glucose and 50 mM tris(hydroxymethyl)aminomethane, adjusted to pH 7.4. The gel-filtered platelets (GFP) appearing in front of the plasma proteins were used for the binding tests. 50 μl of a 60 mM calcium chloride solution, 50 μl of a 0.6 mM adenosine diphosphate solution, 100 μl of substance solution or solvent and 50 μl of fibrinogen solution (containing 3 μg I125-fibrinogen) were added to 750 μl of GFP and incubated for 20 minutes at ambient temperature. The non-specific binding was measured in the presence of 3 mg/ml of cold fibrinogen. 900 μl of the incubate were carefully pipetted onto 250 μl of silicon oil (AP 38: AR 20, 1:2 v/v, Wacker Chemie) in Eppendorf vessels and centrifuged for 2 minutes at 10,000 *g. The aqueous supernatant and some of the oil were removed, the tip of the vessel with the platelet pellet was cut off and the quantity of bound fibrinogen was measured in a gamma-counter. The concentration of substance which inhibited fibrinogen binding by 50% was calculated from a series of concentrations and given as the IC50.

| Compound | EC50 [1] [nM] | IC50 [2] [nM] |
| --- | --- | --- |
| N=C(N)c1ccc(-n2ccn(-c3ccc(CC(C(=O)O)N(Cc4ccccc4)Cc4ccccc4)cc3)c2=O)cc1 (stereo not drawn) [1(150), 1-(4-amidino-phenyl)-3-[4-(2-carboxy-2-dibenzylamino-ethyl)-phenyl]-3H-imidazol-2-one] | 9900 | 370 |
| CN1C(=O)N(c2ccc(CCC(=O)O)cc2)CC1c1ccc(C(=N)N)cc1 (stereo not drawn) [4(16), 4-(4-amidino-phenyl)-1-[4-(2-carboxy-ethyl)-phenyl]-3-methyl-imidazolidin-2-one hydrochloride] | 1900 | 1500 |
| N=C(N)c1ccc(N2CCN(c3ccc(CCC(=O)O)cc3)C2=O)cc1 [1(6), 1-(4-amidino-phenyl)-3-[4-(2-carboxy-ethyl)-phenyl]-imidazolidin-2-one] | 70 | 17 |
| N=C(N)c1ccc(N2CC(=O)N(c3ccc(CCC(=O)O)cc3)C2=O)cc1 [1(62), 1-(4-amidino-phenyl)-3-[4-(2-carboxy-ethyl)-phenyl]-imidazolidin-2,4-dione] | 40 | 13 |
| N=C(N)c1ccc(-c2ccc(N3CC(=O)N(CCC(=O)O)C3=O)cc2)cc1 [1(2), 1-(4'-amidino-4-biphenylyl)-3-(2-carboxy-ethyl)-imidazolidin-2,4-dione] | 320 | 96 |
| COC(=O)CCc1ccc(-n2cnn(-c3ccc(C(=N)N)cc3)c2=O)cc1 [2(123), 2-(4-amidino-phenyl)-4-[4-(2-methoxycarbonyl-ethyl)-phenyl]-4H-1,2,4-triazol-3-one hydrochloride] | 70 | 3100 |
| COC(=O)c1ccc(CCN2CCN(c3ccc(C(=N)N)cc3)C2=O)cc1 [2(48), 1-(4-amidino-phenyl)-3-[2-(4-methoxycarbonyl-phenyl)-ethyl]-imidazolidin-2-one] | > 100000 | 22000 |
| Cc1nn(-c2ccc(C(=N)N)cc2)c(=O)n1-c1ccc(CCC(=O)OCC(C)C)cc1 [11(12), 2-(4-amidino-phenyl)-4-[4-(2-isobutyloxycarbonyl-ethyl)-phenyl]-5-methyl-4H-1,2,4-triazol-3-one hydrochloride] | 30 | 43 |
| CC(C)(CC(=O)O)c1ccc(N2CCN(c3ccc(C(=N)N)cc3)C2=O)cc1 [1(51), 1-(4-amidino-phenyl)-3-[4-(3-carboxy-2-methyl-2-propyl)-phenyl]-imidazolidin-2-one] | 13000 | 3600 |
| COC(=O)CCc1ccc(N2C(=O)CN(c3ccc(C(=N)N)cc3)C2=O)cc1 [2(53), 1-(4-amidino-phenyl)-3-[4-(2-methoxycarbonyl-ethyl)-phenyl]-imidazolidin-2,4-dione hydrochloride] | 200 | 4500 |
| NCc1ccc(N2CCN(c3ccc(OCC(=O)O)cc3)C2=O)cc1 [1(141), 1-(4-aminomethyl-phenyl)-3-(4-carboxymethyloxyphenyl)-imidazolidin-2-one] | 630 | 310 |

Second part, the compound after the results:

| EC50 [1] [nM] | IC50 [2] [nM] | Compound |
| --- | --- | --- |
| 630 | 25000 | CCOC(=O)CCN1C(=O)CN(c2ccc(-c3ccc(C(=N)N)cc3)cc2)C1=O [2(2), 1-(4'-amidino-4-biphenylyl)-3-(2-ethoxycarbonyl-ethyl)-imidazolidin-2,4-dione hydrochloride] |
| 21000 | 68000 | COC(=O)CCc1ccc(N2CCCN(c3ccc(CN)cc3)C2=O)cc1 [8(1), 1-(4-aminomethyl-phenyl)-3-[4-(2-methoxycarbonyl-ethyl)-phenyl]-3,4,5,6-tetrahydro-1H-pyrimidin-2-one hydrochloride] |
| 12000 | 6000 | COC(=O)CN1CCN(c2ccc(-c3ccc(C(=N)N)cc3)cc2)C1=O [Example 2, 1-(4'-Amidino-4-biphenylyl)-3-methoxycarbonylmethyl-imidazolidin-2-one hydrochloride] |
| 4100 | 3600 | Cc1cc(CN)ccc1N1CCN(c2ccc(CCC(=O)O)cc2)C1=O [1(156), 1-(4-aminomethyl-2-methyl-phenyl)-3-[4-(2-carboxy-ethyl)-phenyl]-imidazolidin-2-one] |
| 31000 | 8000 | COC(=O)CCc1ccc(-n2ccn(-c3ccc(C(=N)NC(=O)OC)cc3)c2=O)cc1 [5(8), 1-(4-methoxycarbonylamidino-phenyl)-3-[4-(2-methoxycarbonyl-ethyl)-phenyl]-3H-imidazol-2-one] |
| 140 | 26 | N=C(N)c1ccc(N2CCN(c3ccc([S+]([O-])CC(=O)O)cc3)C2=O)cc1 (stereo not drawn) [1(49), 1-(4-amidino-phenyl)-3-(4-carboxymethylsulphinylphenyl)-imidazolidin-2-one] |
| 100 | 37 | Cc1cc(C(=N)N)ccc1N1CCN(c2ccc(CCC(=O)O)cc2)C1=O [1(36), 1-(4-amidino-2-methyl-phenyl)-3-[4-(2-carboxy-ethyl)-phenyl]-imidazolidin-2-one] |
| 5900 | 3000 | COC(=O)CCc1ccc(N2CCN(c3ccc(CN)cc3C)C2=O)cc1 [8(5), 1-(4-aminomethyl-2-methyl-phenyl)-3-[4-(2-methoxycarbonyl-ethyl)-phenyl]-imidazolidin-2-one] |
| 600 | 750 | COC(=O)COc1ccc(N2CCN(c3ccc(CN)cc3)C2=O)cc1 [Example 8, 1-(4-Aminomethyl-phenyl)-3-(4-methoxycarbonylmethyloxy-phenyl)-imidazolidin-2-one hydrochloride] |
| 6200 | 29000 | COC(=O)C(N)Cc1ccc(N2CCN(c3ccc(CN)cc3)C2=O)cc1 (stereo not drawn) [8(3), 1-[4-(2-amino-2-methoxycarbonyl-ethyl)-phenyl]-3-(4-aminomethyl-phenyl)-imidazolidin-2-one dihydrochloride] |
| 110 | 25 | N=C(N)c1ccc(-n2ccn(-c3ccc(CC(N)C(=O)O)cc3)c2=O)cc1 (stereo not drawn) [1(148), 1-(4-amidino-phenyl)-3-[4-(2-amino-2-carboxy-ethyl)-phenyl]-3H-imidazol-2-one] |
| 14000 | 13000 | COC(=O)CCCCN1CCN(c2ccc(C(=N)N)cc2)C1=O [2(71), 1-(4-amidino-phenyl)-3-(4-methoxycarbonyl-butyl)-imidazolidin-2-one hydrochloride] |
| 100 | 420 | COC(=O)CCC1CCC(N2CCN(c3ccc(C(=N)N)cc3)C2=O)CC1 (stereo not drawn) [2(43), 1-(4-amidino-phenyl)-3-[4-(2-methoxycarbonyl-ethyl)-cyclohexyl]-imidazolidin-2-one hydrochloride] |
| 5400 | 230 | N=C(N)c1ccc(-c2ccc(-c3cn(CCC(=O)O)c(=O)[nH]3)cc2)cc1 [1(117), 4-(4'-amidino-4-biphenylyl)-1-(2-carboxy-ethyl)-3H-imidazol-2-one hydrochloride] |
| 32000 | 9300 | CCOC(=O)CCc1ccc(-n2ccn(-c3ccc(C(=N)NC(=O)OCC)cc3)c2=O)cc1 [Example 5, 1-(4-Ethoxycarbonylamidino-phenyl)-3-[4-(2-ethoxycarbonyl-ethyl)-phenyl]-3H-imidazol-2-one] |
| 320 | 640 | COC(=O)CCc1ccc(N2CCN(c3ccc(C(=N)N)cc3)S2(=O)=O)cc1 [2(57), 2-(4-amidino-phenyl)-5-[4-(2-methoxycarbonyl-ethyl)-phenyl]-3,4-dihydro-2H,5H-1,2,5-thiadiazole-1,1-dioxide hydrochloride] |
